# Experimental data taken from the supplement of paper PMC10307832.
# Legend:
# Assay in all cases: relative viability (nuclei count vs DMSO), 5 days (fraction); higher = more cells survive
# Idelalisib + Alpelisib = compound: CC[C@H](Nc1ncnc2[nH]cnc12)c1nc2cccc(F)c2c(=O)n1-c1ccccc1 [Idelalisib] + Cc1nc(NC(=O)N2CCC[C@H]2C(N)=O)sc1-c1ccnc(C(C)(C)C(F)(F)F)c1 [Alpelisib] (partner 2 µM)
# Procedure, shortened: (§1)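 A single step with final 0.05% Triton X-100, 1% formaldehyde and 1 ug/ml Hoechst fixed the cells and stained nuclei 5 days after treatment. Lung cancer cell lines in 1536-well plates had been treated by pin tool the day after seeding with one drug alone or a fixed anchor-drug dose plus five library-drug doses (not always all listed) in √10 steps, and nuclei were counted on 4× images. Relative viability is the ratio of nuclei in treated wells to nuclei in vehicle wells, taken as the median of duplicate plates.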
# Idelalisib + AZD7762 = compound: CC[C@H](Nc1ncnc2[nH]cnc12)c1nc2cccc(F)c2c(=O)n1-c1ccccc1 [Idelalisib] + NC(=O)Nc1cc(-c2cccc(F)c2)sc1C(=O)N[C@H]1CCCNC1 [AZD7762] (partner 0.2 µM)
# Procedure, shortened: as §1
# Pemetrexed + Pictilisib = compound: Nc1nc2[nH]cc(CCc3ccc(C(=O)N[C@@H](CCC(=O)O)C(=O)O)cc3)c2c(=O)[nH]1 [Pemetrexed] + CS(=O)(=O)N1CCN(Cc2cc3nc(-c4cccc5[nH]ncc45)nc(N4CCOCC4)c3s2)CC1 [Pictilisib] (partner 1 µM)
# Procedure, shortened: as §1
# Pemetrexed + Navitoclax = compound: Nc1nc2[nH]cc(CCc3ccc(C(=O)N[C@@H](CCC(=O)O)C(=O)O)cc3)c2c(=O)[nH]1 [Pemetrexed] + CC1(C)CCC(c2ccc(Cl)cc2)=C(CN2CCN(c3ccc(C(=O)NS(=O)(=O)c4ccc(N[C@H](CCN5CCOCC5)CSc5ccccc5)c(S(=O)(=O)C(F)(F)F)c4)cc3)CC2)C1 [Navitoclax] (partner 0.5 µM)
# Procedure, shortened: as §1
Cell Line,relative viability (Idelalisib + Alpelisib; first compound 0.04 µM),relative viability (Idelalisib + Alpelisib; first compound 0.1265 µM),relative viability (Idelalisib + Alpelisib; first compound 0.4 µM),relative viability (Idelalisib + Alpelisib; first compound 1.265 µM),relative viability (Idelalisib + Alpelisib; first compound 4 µM),relative viability (Idelalisib + AZD7762; first compound 0.04 µM),relative viability (Idelalisib + AZD7762; first compound 0.1265 µM),relative viability (Idelalisib + AZD7762; first compound 0.4 µM),relative viability (Idelalisib + AZD7762; first compound 1.265 µM),relative viability (Idelalisib + AZD7762; first compound 4 µM),relative viability (Pemetrexed + Pictilisib; first compound 0.002 µM),relative viability (Pemetrexed + Pictilisib; first compound 0.006325 µM),relative viability (Pemetrexed + Pictilisib; first compound 0.02 µM),relative viability (Pemetrexed + Pictilisib; first compound 0.06325 µM),relative viability (Pemetrexed + Pictilisib; first compound 0.2 µM),relative viability (Pemetrexed + Navitoclax; first compound 0.002 µM),relative viability (Pemetrexed + Navitoclax; first compound 0.006325 µM),relative viability (Pemetrexed + Navitoclax; first compound 0.02 µM),relative viability (Pemetrexed + Navitoclax; first compound 0.06325 µM),relative viability (Pemetrexed + Navitoclax; first compound 0.2 µM)
NCI-H650,1.27,1.01,0.961,1.46,0.962,1.48,1.04,0.79,0.378,1.08,0.831,0.756,0.861,0.786,0.851,,,,,
IA-LM,0.787,0.754,0.884,0.72,0.84,,,,,,0.115,0.323,,0.343,0.339,0.773,0.798,0.856,0.711,0.483
A-427,1.11,1.05,0.945,1.15,1.06,0.773,0.748,0.66,0.442,0.624,0.646,0.759,0.804,0.746,0.642,0.891,0.979,0.978,1.04,0.954
NCI-H2347,0.964,1,0.989,1.07,0.881,0.699,0.925,0.69,0.466,0.478,0.392,0.545,0.601,0.525,0.606,0.659,0.805,0.776,0.619,0.391
NCI-H1793,0.835,0.571,0.392,0.671,0.529,0.758,0.449,,0.14,0.326,0.303,0.299,0.341,0.247,0.311,0.616,0.41,0.55,0.421,0.416
NCI-H1651,0.921,0.864,0.907,0.964,0.845,0.522,0.456,0.46,0.245,0.519,0.627,0.49,0.658,0.554,0.556,0.906,0.977,1.01,0.938,0.968
HCC-78,0.269,0.291,0.246,0.287,0.207,0.509,0.649,0.555,0.609,0.547,,0.179,0.197,0.14,0.157,,0.646,0.547,0.242,0.207
NCI-H23,0.737,0.635,0.357,0.727,0.515,0.265,0.218,0.247,0.195,0.235,0.395,0.416,0.538,0.516,0.408,0.808,0.756,1.07,0.788,0.858
LOU-NH91,0.762,0.705,0.634,0.59,0.641,0.833,0.807,0.686,0.638,0.673,0.511,0.488,0.551,0.453,0.392,0.629,0.727,0.708,0.431,0.416
LXF-289,0.997,1.05,0.996,1.01,0.993,1.16,1.09,1.15,0.838,1.16,0.756,0.759,0.844,0.827,0.701,0.881,1,0.994,0.993,0.929
NCI-H460,0.566,0.521,0.426,0.324,0.291,0.639,0.611,0.615,0.2,0.682,0.233,0.396,0.383,0.313,0.121,0.945,1.1,1.33,0.388,0.0669
NCI-H1792,0.315,0.662,0.665,0.577,0.581,0.737,0.803,0.452,0.493,0.388,0.252,0.298,0.325,0.255,0.252,0.59,0.823,0.579,0.564,0.585
EMC-BAC-2,0.689,0.736,0.674,0.707,0.684,1.08,1.1,1.02,1.11,1.08,0.534,0.465,0.564,0.579,0.421,1.14,1.09,1.21,1.2,1.09
CAL-12T,1.34,1.18,0.898,0.966,0.971,0.843,0.653,0.713,0.398,0.654,0.426,0.484,0.451,0.416,0.389,1.17,1.05,1.14,1.3,1.22
ChaGo-K-1,,,,,,0.943,0.885,0.826,0.606,0.841,0.609,0.793,0.597,0.224,0.28,1.03,0.969,0.914,0.296,0.306
COR-L 105,1.05,1.08,0.855,0.83,0.586,,,,,,0.406,0.463,0.423,0.386,0.416,0.674,0.686,0.878,0.69,0.707
NCI-H1944,0.881,0.836,0.651,0.688,0.545,0.554,0.501,0.457,0.2,0.61,0.307,0.345,0.337,0.345,0.327,0.945,1.01,1.03,1.08,1.01
NCI-H2009,1.18,1.12,1.14,1.17,1.01,,,,,,0.785,0.763,0.824,0.744,0.723,1.15,1.11,1.18,1.12,1.04
SW 900,,,,,,0.569,0.609,0.416,0.3,0.463,,,,,,,,,,
NCI-H441,0.987,0.455,,0.839,0.611,1.31,1.08,,0.715,1.32,0.46,0.463,0.595,0.322,0.268,,0.457,0.605,0.6,0.48
NCI-H1437,0.947,1.07,0.892,0.84,0.748,1.09,1.03,1.06,0.863,1.15,0.297,0.422,0.389,0.267,0.193,0.988,1.05,1.02,0.575,0.291

Cell Line,relative viability (Idelalisib + Alpelisib; first compound 0.04 µM),relative viability (Idelalisib + Alpelisib; first compound 0.1265 µM),relative viability (Idelalisib + Alpelisib; first compound 0.4 µM),relative viability (Idelalisib + Alpelisib; first compound 1.265 µM),relative viability (Idelalisib + Alpelisib; first compound 4 µM),relative viability (Idelalisib + AZD7762; first compound 0.04 µM),relative viability (Idelalisib + AZD7762; first compound 0.1265 µM),relative viability (Idelalisib + AZD7762; first compound 0.4 µM),relative viability (Idelalisib + AZD7762; first compound 1.265 µM),relative viability (Idelalisib + AZD7762; first compound 4 µM),relative viability (Pemetrexed + Pictilisib; first compound 0.002 µM),relative viability (Pemetrexed + Pictilisib; first compound 0.006325 µM),relative viability (Pemetrexed + Pictilisib; first compound 0.02 µM),relative viability (Pemetrexed + Pictilisib; first compound 0.06325 µM),relative viability (Pemetrexed + Pictilisib; first compound 0.2 µM),relative viability (Pemetrexed + Navitoclax; first compound 0.002 µM),relative viability (Pemetrexed + Navitoclax; first compound 0.006325 µM),relative viability (Pemetrexed + Navitoclax; first compound 0.02 µM),relative viability (Pemetrexed + Navitoclax; first compound 0.06325 µM),relative viability (Pemetrexed + Navitoclax; first compound 0.2 µM)
LCLC-103H,1,0.914,0.744,0.868,0.926,0.757,0.809,0.724,0.786,0.652,0.639,0.588,0.714,0.61,0.669,,,,,
COR-L23,0.698,0.769,0.634,0.69,0.763,,,,,,0.58,0.688,0.825,0.24,0.147,0.991,0.964,1.04,0.323,0.194
SK-MES-1,0.837,0.913,0.753,0.715,0.574,,,,,,0.34,0.327,0.349,0.322,0.401,1.24,1.1,1.27,1.26,1.2
NCI-H520,0.862,0.878,0.64,0.769,0.349,,,,,,0.247,0.254,0.349,0.322,0.275,0.963,1.08,1.25,1.11,1.08
SW 1573,0.822,0.612,0.711,0.729,0.633,,,,,,0.421,0.475,0.488,0.533,0.463,1.11,0.927,0.987,0.889,0.902
NCI-H2023,0.693,0.564,0.524,0.494,0.313,,,,,,0.136,0.231,0.237,0.218,0.117,0.972,1.02,0.991,0.942,0.459
SK-LU-1,1.43,1.12,0.886,0.876,0.968,,,,,,0.43,0.559,0.727,0.513,0.496,0.881,0.813,0.791,0.901,0.817
NCI-H358,1.03,0.894,0.857,0.94,0.719,0.571,0.462,0.377,0.295,0.409,0.338,0.264,0.29,0.243,0.21,,,,,
ABC-1,0.956,1.22,1.08,1.13,0.807,0.904,0.738,0.783,0.729,0.864,0.947,0.662,0.954,0.826,0.706,,,,,
EBC-1,0.961,0.941,0.684,0.658,0.349,,,,,,0.341,0.346,0.395,0.337,0.339,0.396,0.42,0.474,0.397,0.507
NCI-H1563,0.839,1.03,0.807,0.825,0.669,,,,,,0.705,0.609,0.665,0.634,0.625,,,,,
NCI-H2228,1.07,0.739,0.774,0.672,0.631,,,,,,0.194,0.427,0.379,0.35,0.238,0.739,0.87,0.964,0.696,0.368
NCI-H1299,1.02,1.03,1.02,1.03,1.15,,,,,,0.86,0.724,1.06,0.762,0.536,1.05,0.981,1.1,1.04,1
A549,0.873,0.812,0.505,0.51,0.548,,,,,,0.42,0.519,0.602,0.483,0.489,1.11,1.13,1.25,1.22,1.12
NCI-H522,,,,,,0.857,0.909,0.849,0.745,0.851,,,,,,,,,,
NCI-H1650,,,,,,,,,,,0.545,0.559,0.658,0.333,0.226,1.08,1.11,1.37,1.15,0.632
NCI-H1648,,,,,,0.652,0.638,0.866,0.6,0.504,,,,,,,,,,
NCI-H661,0.708,0.642,0.637,0.718,0.813,,,,,,0.487,0.402,0.438,,0.424,,,,,
NCI-H2342,,,,,,0.626,0.498,0.49,0.484,0.46,,,,,,,,,,
Calu-6,0.954,1.03,0.909,0.99,0.892,,,,,,0.876,0.911,0.978,0.903,0.785,0.786,0.876,0.897,0.872,0.782
